Assays:
hairless guinea pig skin [1] = experiment: In vitro penetration of FITC through full skin; type: in vitro ADME; details: peptide 2.5 mg/mL with FITC sodium salt 0.05 mg/mL in PBS; 3 hours at room temperature then 4° C. overnight; UV 340 nm
Experimental: An in vitro assay to test for skin penetration enhancement was conducted using hairless guinea pig skin. A full skin sample from the back region of the animal was used. The test sample was prepared containing FITC sodium salt (at a concentration of 0.05 mg/mL), the peptide SHSACLDNTFRACG (Sequence ID No: 17) at a concentration of 2.5 mg/mL, and PBS (40 microliters). The control sample was prepared containing only FITC sodium salt (at a concentration of 0.05 mg/mL), and PBS (40 microliters). Each sample was applied to a separate 0.25 cm^2 section on the stratum corneum side of the guinea pig skin using a PIPETMAN Classic pipet. The treated skin samples were covered, maintained at room temperature for 3 hours and then at 4° C. overnight. The side of the skin sample opposite the application side was visually examined under ultraviolet light (340 nm). Visualization of a fluorescent spot on the side of the skin directly opposite from the application site was used to confirm penetration of FITC through the skin. […] For the control sample a fluorescent spot was not visualized on the side of the skin directly opposite from the application site.

hairless guinea pig skin [2] = experiment: In vitro skin penetration enhancement of FITC, tape stripping; type: in vitro ADME; details: peptide 1 mg/mL with FITC sodium salt 10 mg/mL in PBS; 1 hour at room temperature; UV 340 nm; spot indicates penetration of FITC to the 20th tape strip
Experimental: An in vitro assay to test for skin penetration enhancement was conducted using hairless guinea pig skin. A full skin sample from the back region of the animal was used. An individual test sample for each peptide in Table 3 was prepared containing the peptide (at a concentration of 1 mg/mL), FITC sodium salt (at a concentration of 10 mg/mL), and PBS (200 microliters). The control sample was prepared containing only FITC sodium salt (at a concentration of 10 mg/mL), and PBS (200 microliters). Each peptide test sample was applied to a separate 1 cm^2 section on the stratum corneum side of the guinea pig skin using a PIPETMAN Classic pipet. In the same manner, the control sample was applied. The treated skin samples were covered, maintained at room temperature for 1 hour and then washed with deionized water for 5 minutes to remove any FITC remaining on the skin surface. Tape stripping of each skin application site was accomplished using Scotch® box tape. The tape was placed on the skin so that it covered the entire surface of an individual application site (width of tape strip approximately 1.5 cm). For each tape stripping procedure, the tape was secured to the skin with three cycles (3 forward and 3 backward passes) of a 300 g hand held roller. Next the tape was grasped by hand at one end and quickly peeled from the skin surface using a single motion. The exact same procedure of tape stripping was repeated for a total of 20 tape stripping operations at each application site. The 20th tape strip for each sample was imaged for FITC using ultraviolet light at 340 nm. The presence of a fluorescent spot on the tape indicated penetration of FITC to the 20th tape strip.

human cadaver skin [3] = experiment: Phage display library selection for skin penetration using tape stripping; type: in vitro ADME; details: phage-displayed peptide; phages recovered from tape strips 21-24 and remaining skin after 4 rounds of selection; 57 plaques sequenced
Experimental: (§1) Human cadaver skin was stored frozen. Prior to using, the frozen sections were placed in PBS and warmed to room temperature. The phage libraries or synthesized peptide sequences were applied to the stratum corneum side of the skin sample.
A tube containing LB medium (2 mL) and tetracycline (at a concentration of 20 μg/mL) was inoculated with E. coli ER2738 cells and then incubated overnight at 37° C. with shaking (200 rpm). An aliquot (100 microliter) was added to 20 mL of fresh LB medium containing 20 μg/mL of tetracycline. The culture was incubated at 37° C. with shaking (200 rpm) of the flask and the cells were grown to the early-log phase (OD600=0.5). Next, the phage sample was added and the culture was maintained for 4 hours at 37° C. with shaking of the flask.
E. coli ER2738 cells were removed from the phage amplified culture sample by centrifugation at 8000 rpm for 10 minutes. The resulting supernatant solution was added to the PEG/NaCl Phage precipitating solution (at a concentration of […]) and then maintained at 4° C. for 2 hours. The resulting phage precipitate was recovered by centrifuging the sample (8000 rpm for 30 min), removing the supernatant, and re-suspending the phage pellet in 2 mL of Tris-buffered saline (Tris buffered saline reagent prepared as 50 mM Tris-HCl in 150 mM NaCl buffered saline, pH 7.5). The amplified phage product was stored at 4° C.
LB Broth Medium (5-10 mL) was inoculated with a single colony of E. coli ER2738 and incubated with shaking (200 rpm) at 37° C. until the cells reached the early-log growth phase (OD600=0.5). The culture medium was then dispensed into multiple microfuge tubes (200 microliters per microfuge tube with one tube prepared for each phage dilution). Ten fold serial dilutions of amplified phage product in LB broth medium were prepared and a 10 microliter aliquot from each dilution was added to a separate microfuge tube containing culture medium. Each tube was vortexed and incubated at room temperature for 1-5 minutes.
The contents of each microfuge tube were transferred to a corresponding culture tube containing 3mL of soft agar maintained at 45° C. Each culture tube was then vortexed and the soft agar was poured onto a corresponding pre-warmed (37° C.) LB/IPTG/X-gal\tetraycline Petri plate. The resulting plates were gently tilted and rotated in order to evenly spread the soft agar on the plates. The plates were cooled for five minutes, inverted, and then incubated overnight at 37° C. Plates having approximately 100 plaques were counted providing an adjustment for the dilution factor. Single plaque phages on the plates were selected and further processed for DNA sequencing.
(§2) E. coli ER2738 cell culture (800 microliters of an early-log phase prepared as described above) was added to each well of a 96 deep well plate (each well having a 2 mL volume). Single plaque phages were randomly selected from Petri plates prepared as described in the phage titration procedure. A sterilized toothpick was used to remove a plaque from the Petri plate and transfer it to a well in the 96 well plate. The infected E. coli ER2738 cells were incubated for 4 hours at 37° C. with shaking (300 rpm). The liquid cultures were then centrifuged (4000 rpm for 60 min at 4° C.) and an aliquot of the resulting phage supernatant (10 microliters) from each well was sequenced for DNA using the rolling circle amplification method. The DNA sequencing was conducted at MCLAB (South San Francisco, Calif.).
Each phage display library (200 microliters in PBS) was applied to a 1 cm^2 section of human cadaver skin using a PIPETMAN Classic pipet (Gilson Inc., Middleton, Wis.). Adhesive tape was used to form a square frame that defined the application site. After 1 hour, the application site was washed with PBS to remove phages remaining on the skin surface. Tape stripping of the skin sample was accomplished using Scotch® box tape (3M Company, Maplewood, Minn.). […]

Hairless guinea pigs = experiment: Phage display library selection for skin penetration, in vivo hairless guinea pig procedure; details: phage-displayed peptide; phages recovered from blood 1 hour after loading on back skin; 48 plaques sequenced
Experimental: as §2
Hairless guinea pigs (200 gram females from Charles River Laboratory, Wilmington, Mass.) were anesthetized in a chamber using 3-5% isoflurane in oxygen or air, and maintained at 1.5-3% isoflurane with a co-axial breathing device (COAX-3 obtained from Viking Medical, Medford Lakes, N.J.). Each animal was placed in lateral recumbency on a thermostatically controlled surface with its nose and mouth inside the anesthetic face mask for the duration of the experiment. During the procedure, the animal was monitored for respiration rate and the level of anesthesia was adjusted as required. The section of the back used for loading a phage library was wiped with a 70% isopropanol in water solution.
A phage display library containing about 10^11 phage particles in 200 microliters of PBS was loaded onto a 1 cm^2 section of skin on the back of the animal using a PIPETMAN Classic pipet. In order to both control the humidity and reduce contamination at the application site, a Hill Top Chamber® (Hill Top Research, St. Petersburg, Fla.) was placed over the application site and attached with adhesive. After 1 hour, 10 mL of blood was bled from the heart. The blood was immediately transferred to a vial containing heparin (1000 USP units per mL). The sample of blood (10 mL) was mixed with 50 mL of E. coli ER2738 cells in LB broth medium (early log phase, OD600=0.5) and then added to 300 mL of soft agar. Equal portions of soft agar containing blood and ER2738 (about 7 mL per plate) were added to fifty LB/IPTG/X-gal/tetracycline Petri plates. The plates were incubated overnight at 37° C. The resulting single plaque phages were randomly picked from the agar plate and processed for phage DNA sequencing using the procedure described above. DNA sequences were successfully obtained from 48 of the 96 isolated phage plaques.

human cadaver skin [4] = experiment: In vitro skin penetration enhancement of GFP, tape stripping; type: in vitro ADME; details: 0.1 mg peptide with GFP 2.55 mg/mL in PBS; 2 hours at room temperature; 20 tape strips; control without peptide reached tape strip 6
Experimental: as §1
An in vitro assay to test for skin penetration enhancement was conducted using human cadaver skin. Two test samples (A and B) and a control sample were prepared. Test sample A contained GFP (at a concentration of 2.55 mg/mL), 0.1 mg of the peptide ACLDNTFRAC (Sequence ID No: 6, Table 2), and PBS (50 microliters). Test sample B contained GFP (at a concentration of 2.55 mg/mL), 0.1 mg of the peptide SHSACLDNTFRACGGGS (Sequence ID No: 14, Table 3), and PBS (50 microliters). The control sample contained GFP (at a concentration of 2.55 mg/mL) and PBS (100 microliters). Each sample was applied to a separate 1 cm^2 section of human cadaver skin using a PIPETMAN classic pipet. Adhesive tape was used to form a square frame that defined each application site. The treated skin samples were covered, maintained at room temperature for 2 hours, and then washed with deionized water for 5 minutes to remove any GFP remaining on the skin surface. Tape stripping of each skin application site was accomplished using Scotch® box tape. […]

Substance	Fluorescent Spot Visualized on Tape Strip #20 (hairless guinea pig skin [2])	Frequency of Sequence in Plaques from Tape Stripping of Human Cadaver Skin Study (human cadaver skin [3]) [n/57]	Frequency of Sequence in Plaques from Hairless Guinea Pig Study (Hairless guinea pigs) [n/48]	other results
17 (SHSACLDNTFRACG; Phage display library peptides) [compound 17]				fluorescent spot on the side of the skin directly opposite from the application site (penetration of FITC through the skin) (hairless guinea pig skin [1]): a fluorescent spot was visualized
16 (SHSASSDIPLFTRYGGGS; Phage display library peptides) [compound 16]	yes			
1 (ACLPGVLGSC; Phage display library peptides) [compound 1]		1	0	
14 (SHSACLDNTFRACGGGS; Phage display library peptides) [compound 14]	yes			deepest penetration of the green fluorescent signal of GFP in the skin sample (tape strip number) (human cadaver skin [4]): 20
5 (AKSSWWGRAYWY; Phage display library peptides) [compound 5]		1	0	
8 (ASSDIPLFTRY; Phage display library peptides) [compound 8]		1	4	
12 (SHSTWTQAWPWGWTWGGGS; Phage display library peptides) [compound 12]	yes			
2 (ACSLPWDASC; Phage display library peptides) [compound 2]		1	0	
3 (ACDTPRLTHC; Phage display library peptides) [compound 3]		2	0	
13 (SHSAKSSWWGRAYWYGGGS; Phage display library peptides) [compound 13]	yes			
15 (SHSASSTTLNTLAQWPA; Phage display library peptides) [compound 15]	yes			
7 (ASSTTLNTLAQ; Phage display library peptides) [compound 7]		9	5	
4 (TWTQAWPWGWTW; Phage display library peptides) [compound 4]		1	0	
10 (SHSACSLPWDASCGGGS; Phage display library peptides) [compound 10]	yes			
6 (ACLDNTFRAC; Phage display library peptides) [compound 6]		2	11	deepest penetration of the green fluorescent signal of GFP in the skin sample (tape strip number) (human cadaver skin [4]): 14

— patent US9642895B2, “Peptides for enhancing transdermal delivery” (3M INNOVATIVE PROPERTIES COMPANY, priority 2013, dated 2017)
